Laboratory results: ChEMBL document CHEMBL1201862, “PubChem BioAssay data set” (2004)
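Results reflect a 48-hour exposure of cells in 96-well plates to compound at five concentrations. GI50 = concentration required for 50% inhibition of growth.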 Active and inactive are the calls of the source. No stated cut-off is given here; in the data, active = GI50 up to about 1.1 µM and inactive = higher.

Legend:
Experiment in all cases: DTP human tumour cell line panel, 48 h
[1] = test system: MDA-MB-435
[2] = test system: Hs-578T
[3] = test system: SNB-75
[4] = test system: EKVX
[5] = test system: U-251
[6] = test system: OVCAR-4
[7] = test system: SK-OV-3
[8] = test system: MDA-N
[9] = test system: HT-29
[10] = test system: TK-10
[11] = test system: K562
[12] = test system: ACHN
[13] = test system: OVCAR-3
[14] = test system: HCC 2998
[15] = test system: PC-3
[16] = test system: HCT-15
[17] = test system: HOP-62
[18] = test system: NCI-H226
[19] = test system: LOX IMVI
[20] = test system: HOP-92

Row | Compound | GI50 [1] | GI50 [2] | GI50 [3] | GI50 [4] | GI50 [5] | GI50 [6] | GI50 [7] | GI50 [8] | GI50 [9] | GI50 [10] | GI50 [11] | GI50 [12] | GI50 [13] | GI50 [14] | GI50 [15] | GI50 [16] [µM] | GI50 [17] | GI50 [18] | GI50 [19] | GI50 [20]
1 | O=C(NNc1nc(-c2ccccc2)cs1)Nc1ccccc1 | 22.2 µM (inactive) | 28.9 µM (inactive) | 23.2 µM (inactive) | 32 µM (inactive) | 22.2 µM (inactive) | 28.7 µM (inactive) | 22.6 µM (inactive) | 24.2 µM (inactive) | 29 µM (inactive) | 19.5 µM (inactive) | 34.4 µM (inactive) | 37.5 µM (inactive) | 13.9 µM (inactive) | 25.6 µM (inactive) | 17.3 µM (inactive) | 26.6 | 18.7 µM (inactive) | 20.4 µM (inactive) |  | 
2 | COC(=O)c1cnn2c1ccc1ccccc12 | > 100 µM (inactive) | > 100 µM (inactive) | > 100 µM (inactive) | 55.3 µM (inactive) | > 100 µM (inactive) |  | > 100 µM (inactive) | > 100 µM (inactive) | > 100 µM (inactive) | > 100 µM (inactive) | > 100 µM (inactive) | > 100 µM (inactive) | > 100 µM (inactive) |  | > 100 µM (inactive) | > 100 | > 100 µM (inactive) | > 100 µM (inactive) | > 100 µM (inactive) | > 100 µM (inactive)
3 | O=C(Nc1ccc(Cl)cc1)[C-](C(=O)c1ccc(Br)cc1)[n+]1cccc(-c2ccc(Cl)cc2)n1 | 3.07 µM (inactive) | 4.25 µM (inactive) | 6.49 µM (inactive) | 3.49 µM (inactive) | 3.87 µM (inactive) | 3.65 µM (inactive) | 6.35 µM (inactive) | 4.53 µM (inactive) |  | 5.74 µM (inactive) | 6.3 µM (inactive) | 4.84 µM (inactive) | 2.92 µM (inactive) | 6.78 µM (inactive) | 3.95 µM (inactive) | 3.93 | 6.28 µM (inactive) |  | 2.97 µM (inactive) | 3.61 µM (inactive)
4 | C=CCN1C(=O)CS/C1=N\NC(=O)CSc1nc2ccccc2c(=O)n1CC | > 100 µM (inactive) | > 100 µM (inactive) | > 100 µM (inactive) | > 100 µM (inactive) | > 100 µM (inactive) | > 100 µM (inactive) | > 100 µM (inactive) | > 100 µM (inactive) | > 100 µM (inactive) | > 100 µM (inactive) | > 100 µM (inactive) | > 100 µM (inactive) | > 100 µM (inactive) | > 100 µM (inactive) | > 100 µM (inactive) | > 100 | 84.1 µM (inactive) | > 100 µM (inactive) | > 100 µM (inactive) | 
5 | C=CCNC(=S)N/C=C(\C(=O)OCC)C(=O)C(=O)OCC | > 100 µM (inactive) | > 100 µM (inactive) | > 100 µM (inactive) | > 100 µM (inactive) | > 100 µM (inactive) | > 100 µM (inactive) | > 100 µM (inactive) | > 100 µM (inactive) | > 100 µM (inactive) |  | > 100 µM (inactive) | > 100 µM (inactive) | > 100 µM (inactive) | > 100 µM (inactive) | > 100 µM (inactive) | > 100 | > 100 µM (inactive) | > 100 µM (inactive) | > 100 µM (inactive) | 
6 | CC(=O)NC1C(OCc2ccccc2)OC(CO)C(O)C1OCC(=O)NC(C)C(=O)NC(CCC(=O)Nc1ccc2c(c1)CN1C(=O)c3ccccc3C1=N2)C(N)=O (centres undefined) | > 100 µM (inactive) | > 100 µM (inactive) | > 100 µM (inactive) | > 100 µM (inactive) | > 100 µM (inactive) | > 100 µM (inactive) | > 100 µM (inactive) | > 100 µM (inactive) | > 100 µM (inactive) | > 100 µM (inactive) | > 100 µM (inactive) | > 100 µM (inactive) | > 100 µM (inactive) | > 100 µM (inactive) | > 100 µM (inactive) | > 100 | > 100 µM (inactive) |  | > 100 µM (inactive) | 76.7 µM (inactive)
7 | CCOC(=O)Nc1cc2c(c(N)n1)N=C(c1ccccc1)CN2 | < 0.01 µM (active) | < 0.0001 µM (active) | < 0.01 µM (active) | < 0.0187 µM (active) | < 0.01 µM (active) | 28.1 µM (inactive) | 0.0527 µM (active) | < 0.01 µM (active) | < 0.01 µM (active) | 10.7 µM (inactive) | < 0.01 µM (active) | < 0.01 µM (active) | < 0.01 µM (active) | < 0.01 µM (active) | < 0.01 µM (active) | < 0.01 | < 0.01 µM (active) |  | < 0.01 µM (active) | < 0.01 µM (active)
